Measurements from patent US4369191A, “Naphthalenetetrayltetrakis(sulfonylimino)-tetrabenzene di- and tricarboxylic acids” (American Cyanamid Company, priority 1981, dated 1983).
Counter-ions that a name gives are not always drawn.

How the values were obtained:
activated human C1 = biological target: T1, activated human C1 (Homo sapiens, UniProt P09871); assay: Test Code 026 (C1 inhibitor); type: biochemical; details: in vitro; serial twofold dilution assay, higher well number indicates higher activity
T1 construct: fluid-phase human C2 as substrate in presence of C4
T1 sequence (P09871 16-688): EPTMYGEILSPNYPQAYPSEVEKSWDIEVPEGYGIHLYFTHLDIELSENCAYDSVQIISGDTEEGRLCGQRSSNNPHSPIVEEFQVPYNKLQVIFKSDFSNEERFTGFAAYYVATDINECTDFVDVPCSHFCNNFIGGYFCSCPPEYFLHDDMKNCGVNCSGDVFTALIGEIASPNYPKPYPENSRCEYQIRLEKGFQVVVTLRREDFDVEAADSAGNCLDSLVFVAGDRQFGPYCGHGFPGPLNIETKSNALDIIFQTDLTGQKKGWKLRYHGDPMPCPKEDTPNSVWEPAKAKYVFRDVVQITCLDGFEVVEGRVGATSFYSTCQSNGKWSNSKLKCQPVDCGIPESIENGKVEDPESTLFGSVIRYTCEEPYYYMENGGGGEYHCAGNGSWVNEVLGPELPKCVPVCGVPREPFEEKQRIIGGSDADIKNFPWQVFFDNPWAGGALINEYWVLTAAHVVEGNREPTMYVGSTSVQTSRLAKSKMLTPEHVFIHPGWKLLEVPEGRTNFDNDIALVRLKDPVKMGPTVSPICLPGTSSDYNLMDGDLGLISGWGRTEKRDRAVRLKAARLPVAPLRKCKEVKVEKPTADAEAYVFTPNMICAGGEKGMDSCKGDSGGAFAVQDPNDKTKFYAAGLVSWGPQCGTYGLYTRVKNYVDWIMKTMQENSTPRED
T1 sequence (P00736 18-705 partner): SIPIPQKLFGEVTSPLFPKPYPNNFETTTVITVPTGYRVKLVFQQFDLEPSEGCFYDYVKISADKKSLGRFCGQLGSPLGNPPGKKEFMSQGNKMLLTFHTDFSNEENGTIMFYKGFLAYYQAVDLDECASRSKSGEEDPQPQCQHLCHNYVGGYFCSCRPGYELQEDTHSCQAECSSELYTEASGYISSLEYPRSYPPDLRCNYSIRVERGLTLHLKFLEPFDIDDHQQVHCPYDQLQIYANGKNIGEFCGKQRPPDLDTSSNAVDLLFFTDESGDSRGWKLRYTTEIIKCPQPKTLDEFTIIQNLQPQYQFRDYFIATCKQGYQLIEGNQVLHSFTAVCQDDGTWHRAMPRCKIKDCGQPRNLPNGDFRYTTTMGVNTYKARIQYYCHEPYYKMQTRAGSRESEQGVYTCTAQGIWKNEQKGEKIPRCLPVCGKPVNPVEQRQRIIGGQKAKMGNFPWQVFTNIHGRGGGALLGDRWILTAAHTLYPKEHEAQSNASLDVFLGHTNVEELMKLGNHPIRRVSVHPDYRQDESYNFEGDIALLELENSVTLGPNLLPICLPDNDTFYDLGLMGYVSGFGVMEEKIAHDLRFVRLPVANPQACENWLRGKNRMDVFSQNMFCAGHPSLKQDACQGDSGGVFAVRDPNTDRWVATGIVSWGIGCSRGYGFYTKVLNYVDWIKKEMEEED
T1 sequence (P02745 23-245 partner): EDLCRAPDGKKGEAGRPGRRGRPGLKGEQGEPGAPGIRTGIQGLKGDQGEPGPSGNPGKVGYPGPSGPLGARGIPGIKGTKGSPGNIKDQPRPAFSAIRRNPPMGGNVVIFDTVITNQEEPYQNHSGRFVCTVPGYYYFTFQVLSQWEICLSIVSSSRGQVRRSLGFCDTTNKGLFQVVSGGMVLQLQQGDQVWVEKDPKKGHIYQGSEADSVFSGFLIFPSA
T1 sequence (P02746 28-253 partner): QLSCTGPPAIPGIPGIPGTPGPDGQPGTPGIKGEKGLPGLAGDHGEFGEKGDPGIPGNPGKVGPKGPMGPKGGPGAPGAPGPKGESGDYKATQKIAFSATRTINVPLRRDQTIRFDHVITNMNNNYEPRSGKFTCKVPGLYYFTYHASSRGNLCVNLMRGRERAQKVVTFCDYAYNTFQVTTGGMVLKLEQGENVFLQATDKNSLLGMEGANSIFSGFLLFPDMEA
T1 sequence (P02747 29-245 partner): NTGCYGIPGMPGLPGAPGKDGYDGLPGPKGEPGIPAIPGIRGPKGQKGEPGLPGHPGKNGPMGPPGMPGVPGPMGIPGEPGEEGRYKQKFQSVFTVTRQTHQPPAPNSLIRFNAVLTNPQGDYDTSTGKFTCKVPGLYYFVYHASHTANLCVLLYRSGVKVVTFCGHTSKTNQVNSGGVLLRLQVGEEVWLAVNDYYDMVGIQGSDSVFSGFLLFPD
Description: (§1) An active inhibitor protects C2 from C1 and C4; (ii) Test Code 035 (C3-C9 inhibitor)--This test determines the ability of the late components of human complement (C3-C9) to lyse EAC 142 in the presence of appropriate dilutions of the test compound. An active inhibitor protects EAC 142 from lysis by human C3-C9; (iii) Test Code 036 (C-Shunt inhibitor)--In this test human erythrocytes rendered fragile are lysed in autologous serum via the shunt pathway activated by cobra venom factor in the presence of appropriate dilutions of the test compound. Inhibition of the shunt pathway results in failure of lysis; (iv) Cap 50 Test--Here, appropriate amounts of the test compound are added to a pool of guinea pig serum in vitro, after which the undiluted serum capillary tube assay of U.S. Pat. No. 3,876,376 is run. The concentration of compound inhibiting 50% is reported; and (v) Guinea Pig Intraperitoneal Test (GPIP)--Guinea pigs weighing about 300 g are dosed intraperitoneally (i.p.) with 200 mg/kg of the test compound dissolved in saline and adjusted to pH 7-8. […] Percent inhibition is calculated by comparison with simultaneous controls. […]

[1] = tested on: late components of human complement (C3-C9); assay: Test Code 035 (C3-C9 inhibitor), lysis of EAC 142; type: biochemical; details: in vitro; serial twofold dilution assay, higher well number indicates higher activity
Description: as §1

shunt pathway = assay: Test Code 036 (C-Shunt inhibitor), lysis of human erythrocytes in autologous serum activated by cobra venom factor; type: cell-based; details: in vitro; serial twofold dilution assay, higher well number indicates higher activity
Description: as §1

complement activity = assay: Guinea Pig Intraperitoneal Test (GPIP); type: in vivo; details: 200 mg/kg i.p.; for In vivo Activity (Guinea Pigs) % Inhibition Intraperitoneal, 30 minutes: serum complement activity 30 minutes after injection; for In vivo Activity (Guinea Pigs) % Inhibition Intraperitoneal, 60 minutes: serum complement activity 60 minutes after injection; for In vivo Activity (Guinea Pigs) % Inhibition Intraperitoneal, 120 minutes: serum complement activity 120 minutes after injection
Description: An active inhibitor protects C2 from C1 and C4; (ii) Test Code 035 (C3-C9 inhibitor)--This test determines the ability of the late components of human complement (C3-C9) to lyse EAC 142 in the presence of appropriate dilutions of the test compound. An active inhibitor protects EAC 142 from lysis by human C3-C9; (iii) Test Code 036 (C-Shunt inhibitor)--In this test human erythrocytes rendered fragile are lysed in autologous serum via the shunt pathway activated by cobra venom factor in the presence of appropriate dilutions of the test compound. Inhibition of the shunt pathway results in failure of lysis; (iv) Cap 50 Test--Here, appropriate amounts of the test compound are added to a pool of guinea pig serum in vitro, after which the undiluted serum capillary tube assay of U.S. Pat. No. 3,876,376 is run. The concentration of compound inhibiting 50% is reported; and (v) Guinea Pig Intraperitoneal Test (GPIP)--Guinea pigs weighing about 300 g are dosed intraperitoneally (i.p.) with 200 mg/kg of the test compound dissolved in saline and adjusted to pH 7-8. Approximately 0.4 ml blood samples, taken by orbital sinus puncture 30 minutes and one hour after injections, are collected directly into centrifuge tubes; 5 ml blood samples, taken by decapitation 2 hours after injection are collected directly into diSPo® beakers. The samples were allowed to clot, centrifuged, and the resultant sera were assayed for complement activity using the capillary complement assay. Percent inhibition is calculated by comparison with simultaneous controls. The results of the GPIP appear in Table I together with results of Test Code 026, 035, 036 and Cap 50.

SMILES	Cl 026* Wells (activated human C1) [Wells]	C-Late 035* Wells [1] [Wells]	C-Shunt Inhibition 036* Wells (shunt pathway) [Wells]	In vivo Activity (Guinea Pigs) % Inhibition Intraperitoneal, 30 minutes (complement activity) [%]	In vivo Activity (Guinea Pigs) % Inhibition Intraperitoneal, 60 minutes (complement activity) [%]	In vivo Activity (Guinea Pigs) % Inhibition Intraperitoneal, 120 minutes (complement activity) [%]
O=C([O-])c1cc(NS(=O)(=O)c2cc(S(=O)(=O)Nc3cc(C(=O)[O-])cc(C(=O)[O-])c3)c3cc(S(=O)(=O)Nc4cc(C(=O)[O-])cc(C(=O)[O-])c4)cc(S(=O)(=O)Nc4cc(C(=O)[O-])cc(C(=O)[O-])c4)c3c2)cc(C(=O)[O-])c1.[Na+].[Na+].[Na+].[Na+].[Na+].[Na+].[Na+].[Na+] [5,5',5",5"'-[1,3,5,7-Naphthalenetetrayltetrakis(sulfonylimino)]tetraisophthalic acid, octasodium salt]	7	2	6	66	71	76
O=C(O)c1cc(NS(=O)(=O)c2cc(S(=O)(=O)Nc3cc(C(=O)O)c(C(=O)O)c(C(=O)O)c3)c3cc(S(=O)(=O)Nc4cc(C(=O)O)c(C(=O)O)c(C(=O)O)c4)cc(S(=O)(=O)Nc4cc(C(=O)O)c(C(=O)O)c(C(=O)O)c4)c3c2)cc(C(=O)O)c1C(=O)O [5,5',5",5'"-[1,3,5,7-Naphthalenetetrayltetrakis(sulfonylimino)]tetra-1,2,3-benzenetricarboxylic acid, dodecasodium salt]	8	5	5	80	77	85
